The source of these data is patent publication US20080118980A1, “Estrogen Enhancing Differentiation of Human Mesenchymal Stromal Cells and Adipose-derived Stromal Cells” (The Board of Trustees of the University of Illinois,, priority 2006, published 2008).

Molecules are shown by their SMILES.

One experiment concerns human ASCs. Kind of experiment: Osteogenic differentiation of ASCs modulated by E2 (Example 2). Format: cell-based. As for the experimental part:
Because estrogen receptors (ERs) exist in adipose tissues (Dieudonne et al. (2004) Am J Physiol Cell Physiol. 286:C655-661), it is hypothesized that estrogen can also modulate the differentiation potentials of ASCs. All the experiments using human ASCs were performed under an approved IRB protocol of the University of Illinois at Chicago. Human abdomen subcutaneous adipose tissue was obtained from a healthy person with lipo-aspirated surgery. ASCs were isolated from adipose tissue according to previous studies (Hong et al. (2006) Cells Tissues Organs. 183 (3):133-40). Briefly, adipose tissue was finely minced and then digested with 0.075 wt % collagenase type I (Sigma, St Louis, Mo.) at 37° C. for 45 min with intermittent shaking. The cells were collected by filtration with a cell strainer with pore size of 100 μm diameter (Fisher Scientific, Barrington, Ill.). The harvested cells were cultured in a Dulbecco's Modified Eagle's Medium (DMEM), 15% fetal bovine serum (FBS) and 1% antibiotic-antimycotic at 10^6 cells/100 mm dish. Upon reaching 80-90% confluence, the isolated cells were trypsinized, counted, and subcultured at a density of 10^5 cells/100 mm dish as passage-1. The cells used for study are passage-3.
The basic medium supplemented with 100 nM dexamethasone, 10 mM β-glycerophosphate, and 0.05 mM ascorbic acid-2-phosphate was used to differentiate ASCs into an osteogenic cell lineage. Human ASCs were seeded at a cell density of 10^4 cells/cm^2 on 12-well plates and 100 mm petri dishes. Upon reaching 70% confluence, counting as day-0, the cells were exposed to osteogenic differentiation medium supplemented with different concentrations of E2 (from 10^−8 to 10^−11 M). On day 7, the cells cultured on petri dishes were collected for assessment of gene expressions of osteogenic specific markers and estrogen receptors (ERs) by reverse transcriptase polymerase chain reaction (RT-PCR) analysis. On day 14, the cells cultured in 12-well plates were analyzed for DNA, extracellular matrix, alkaline phosphatase (ALP) activity and calcium content.
On the defined day, cells cultured in 12-well plates were washed twice with phosphate buffered solution (PBS), suspended and lysed in 1% Triton-X100 solution (Sigma, St. Louis, Mo.). The collected cells were subsequently homogenized using sonication (Dismembrator Model 100, Fisher Scientific, Barrington, Ill.). The DNA content in the cells was determined by a fluorometric assay using a spectrofluorometer and DNA quantification kit (Hoechst 33258, Bio-Rad, Hercules, Calif.). The total protein concentrations of lysates were measured by a simple colorimetric assay based on the Bradford dye-binding procedure (Bio-Rad, Hercules, Calif.). The amount of protein was normalized by the unit of DNA.
ALP activity was assessed qualitatively by ALP staining. The cultured cells were fixed in 10% paraformaldehyde and incubated with 120 mM Tris buffer, pH 8.4, containing 0.9 mM Naphtol AS-MX Phosphate (Sigma, St. Louis, Mo.) and 1.8 mM Fast Red TR. After 45 min at room temperature, the cultures were washed with deionized water. Mineral deposition in the extracellular matrix was presented by von Kossa staining. The fixed cells were incubated in 2.5% (w/v) silver nitrate (Sigma, St. Louis, Mo.) solution for 30 min in sunlight. In order to quantify ALP activity and calcium content, cultured cells were washed twice with PBS, suspended and lysed in 0.5 ml of 1% Triton-X100 solution. ALP and calcium content were measured by spectrophotometry with a colorimetric kit according to the manufacturer's instructions (Raichem, San Diego, Calif.).
Total RNA was extracted from the various differentiated cells using TRizol reagent (Invitrogen, Carlsbad, Calif.). Approximately 5 μg of total RNA was converted to single stranded cDNA using a commercial cDNA synthesis kit (Invitrogen, Carlsbad, Calif.). […]

For experiment [1], the system named is rat bone MSC-based TE constructs. Kind of experiment: Osteogenic differentiation of rat bone MSC-based TE constructs with E2 (Example 4). The class given is cell-based. Conditions: 14 days; for calcium deposition: FIG. 9C. As for the experimental part:
TE constructs were created by seeding passage-1 MSCs on gelatin sponges (Gelfoam@, Pharmacia & Upjohn, Kalamazoo, Mich.). The sponge were trimmed into 4×4×4 mm^3 and pre-wet with DMEM medium for 1 hr. The sponges were transferred to MSC suspension with a cell density of 2×10^6 cells/ml under a slight vacuum created by 20 ml syringe, followed by incubation in 5% CO2 at 37° C. for two hours. Beginning the next day as day-0, TE constructs were respectively exposed to the osteogenic differentiation medium supplemented with different concentrations of E2 (10^−6M to 10^−12M). The osteogenic differentiation medium consists of basic medium supplemented with 100 nM dexamethasone, 10 mM β-glycerophosphate, and 0.05 mM ascorbic acid-2-phosphate. After two weeks of differentiation, constructs of each experimental group were collected and quantitatively measured for osteogenic differentiation.
TE constructs were immersed in 0.2 ml of 1% Triton-X100 and homogenized with sonication. The DNA concentration of cell lysate was measured fluorometrically using Hoechst dye 33258 (Bio-Rad, Hercules, Calif.). The fluorescent optical density of each sample was measured using a fluorometer having an excitation wavelength of 360 nm and an emission wavelength of 460 nm. The amount of DNA in each sample was determined by using a prepared standard curve. ALP and calcium content were measured by spectrophotometry with a calorimetric kit according to the manufacturers' instructions (Sigma, St. Louis, Mo.).

In the case of `C[C@]12CC[C@@H]3c4ccc(O)cc4CC[C@H]3[C@@H]1CC[C@@H]2O` [E2, 17-β estradiol], in the experiment with human ASCs (7 days, estrogen supplement 10^−8 M), the “OCN expression (RT-PCR)” value is reported as “only expressed”. In the experiment with human ASCs (7 days, estrogen supplement 10^−11 M), the “ERβ expression (RT-PCR)” value is given as “light bands”. The “ALP and cbfa-1 expression (RT-PCR bands)” value in the experiment with human ASCs (7 days, vs cells grown in the absence of estrogen, FIG. 4) is given as “intense bands”. In the experiment on human ASCs (ASCs, osteogenic medium supplemented with E2), the “staining for ALP and von Kossa” value was “Intense staining”. In addition, the ALP activities result in the experiment on human ASCs (E2 10^−9 and 10^−8 M, after 14 days, FIG. 5B) was “significantly improved”. Moreover, the “proliferation during osteogenesis (DNA content)” value in the experiment with human ASCs (day 14, FIG. 5A) is reported as “does not increase proliferation”. The “calcium content (mineralization of the extracellular matrix)” value in the experiment on human ASCs (day 14, most notably at 10^−8 M, FIG. 5D) is given as “significantly increased”. For the same molecule, the “protein content (extracellular matrix synthesis)” value in the experiment with human ASCs (day 14, normalized by DNA, FIG. 5C) is “increased”. Also, the “peak concentration of E2 to increase ALP activity” value in experiment [1] (both male and female MSCs) is 10^−10 M. Also, the calcium deposition result in experiment [1] (female MSC-derived constructs) was “does not appear to have similar effects”; in experiment [1] (male MSC-derived constructs), “may also improve”. Further, in experiment [1] (male and female constructs, dose-dependent, FIG. 9B), the “ALP activities of constructs” value is “increased”.
